According to patent publication US12295936B2, “Immunomodulating urea azalides” (Zoetis Services LLC, priority 2020, dated 2025):
Values after ≈ are worked out from the molar mass of the structure shown. “Also recorded” adds a separate entry of the source. Where two headings read alike, the source gives them in different places.

Legend:
[1] = test system: M. haemolytica (OSU-012103-BHI); conditions: for Back Transform LS % Lung with Lesions / Range % Lung with Lesions: sc
[2] = test system: H. somni; test: In-vitro MIC model (CLSI broth micro-dilution)
[3] = test system: bovine alveolar macrophages; test: Phospholipidosis assay (HCS LipidTox, Incucyte); assay type: cell-based; conditions: Bos taurus, Macrophage
From the text: The second immunomodulation in vitro assay evaluated the potential for phospholipidosis with the compounds of the invention in bovine alveolar macrophages. This assay is utilized to determine cellular uptake of the compounds of the invention in relevant bovine and murine cell types. This assay utilized Invitrogen's commercially available HCS LipidTox detection kit with an Incucyte real time fluorescence reader to observe variations in EC50 and phospholipidosis profiles based on compound concentrations. Murine intraperitoneal macrophages were also used in the same assay to evaluate species variability for potential correlation with mouse efficacy results. The combination of the bovine whole blood assay and phospholipidosis assays enabled rank ordering for progression into in vivo testing in the murine challenge model.

[4] = test system: P. multocida; test: In-vitro MIC model (CLSI broth micro-dilution); conditions: Pasteurella multocida
[5] = test system: P. multocida 46572; test: In vivo mouse lung infection challenge model (murine efficacy); design: species or system CD-1 female mice; conditions: for Mouse Murine Percent Survival: 20 mg/kg subcutaneous, harmonized against the comparative vehicle survival rate; for clinical efficacy in murine P. multocida infection: airway tissues collected longitudinally for transcriptomic analysis
In short: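 CD-1 female mice challenged intranasally with P. multocida 46572 at mid-log phase (target 5×10^2 CFU/mouse). Compounds given subcutaneously at 20 mg/kg in buffered (~pH 5.4) propylene glycol/monothioglycerol/water. Mortality observed Days 1–10, analysed by generalized mixed model; survival harmonized against vehicle survival rate.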

[6] = test system: M. haemolytica; test: In-vitro MIC model (CLSI broth micro-dilution); conditions: Mannheimia haemolytica
[7] = test system: IL-6; test: LPS-stimulated whole bovine blood assay, MSD cytokine detection; assay type: cell-based; conditions: for IC50: Bos taurus, LPS-stimulated bovine whole blood, read-out: IL-6 (IC50 μM)
From the text: In order to correlate RNA sequencing data to cytokine changes the whole blood assay was utilized. […] The enhancement result represents an overall stimulation of cytokine levels due to cellular stress or potential toxicity with increasing concentrations of the compound, representing a typical bell shape response curve for immunomodulatory activity.

[8] = test system: TNF-α; test: as above; assay type: cell-based; conditions: for IC50: Bos taurus
[9] = test system: IL-6; test: Plasma IL-6 biomarker in bovine M. haemolytica challenge; conditions: for IL-6 levels (plasma) in bovine M. haemolytica challenge: in vivo
[10] = test system: BRD pathogens, M. haemolytica and P. multocida; test: MIC screening panel of BRD pathogens (antibacterial / non-antibacterial)
[11] = Lipophilicity (logP); assay type: physicochemical
From the text: The lipophilicity of an organic compound can be described by a partition coefficient, log P, which can be defined as the ratio of the concentration of the unionized compound at equilibrium between organic and aqueous phases. Generally speaking, more lipophilic compounds are less soluble in aqueous media. A negative value for log P means the compound has a higher affinity for the aqueous phase (hydrophilic); when log P=0 the compound is equally partitioned between the lipid and aqueous phases; a positive value for log P denotes a higher concentration in the lipid phase (lipophilic). Lipophilicity is a major determining factor in a compound's absorption, distribution in the body, penetration across vital membranes and biological barriers, metabolism and excretion. The compounds of the invention are lipophilic (log P˜0.503 to 5.96) which aid in their transport and absorption into respiratory tissues, e.g., lungs.

[12] = 4 independent studies with multiple blood donors, FIG. 4
[13] = LPS-stimulated bovine whole blood, read-out: TNF-α (IC50 μM)
[14] = LPS-stimulated whole bovine blood, read-out: TNF-α IC50
[15] = 32 hours post challenge, dosed 24 hours prior to challenge
[16] = read-out: antibacterial / non-antibacterial (MIC for the BRD pathogens)
[17] = read-out: MIC to the M. haemolytica challenge strain

Compound | Back Transform LS % Lung with Lesions ([1]; 0.5 mg/kg) | Range % Lung with Lesions ([1]; 0.5 mg/kg) | Back Transform LS % Lung with Lesions ([1]; 2.5 mg/kg) | Range % Lung with Lesions ([1]; 2.5 mg/kg) | MIC ([2]; Histophilus somni) | EC50 [3] | MIC [4] | Mouse Murine Percent Survival ([5]; P. multocida challenge) | clinical efficacy in murine P. multocida infection [5] | MIC [6] | IC50 [7] | IC50 [8, 13] | IC50 [8, 14] | IL-6 levels (plasma) in bovine M. haemolytica challenge [9] | in vitro activity vs. clinically relevant pathogenic strains for BRD (M. haemolytica and P. multocida) [10] | MIC [10, 16] | logP [11] | MIC [6, 17] | further results
CCCNC[C@]1(O)[C@H](C)O[C@@H](O[C@H]2[C@H](C)[C@@H](O[C@@H]3O[C@H](C)C[C@H](N(C)C(=O)N(C)c4ccccc4)[C@H]3O)[C@](C)(O)C[C@@H](C)CN[C@H](C)[C@@H](O)[C@](C)(O)[C@@H](CC)OC(=O)[C@@H]2C)C[C@@]1(C)OC [Example H-11, 1-((2S,3R,4S,6R)-2-(((2R,3S,4R,5R,8R,10R,11R,12S,13S,14R)-2-ethyl-3,4,10-trihydroxy-13-(((2R,4R,5S,6S)-5-hydroxy-4-methoxy-4,6-dimethyl-5-((propylamino)methyl)tetrahydro-2H-pyran-2-yl)oxy)-3,5,8,10,12,14-hexamethyl-15-oxo-1-oxa-6-azacyclopentadecan-11-yl)oxy)-3-hydroxy-6-methyltetrahydro-2H-pyran-4-yl)-1,3-dimethyl-3-phenylurea] | 28% | 0 to 68% | 21% | 2 to 70% | > 64 µg/mL | 4 µM | > 64 µg/mL | 36% | clinically efficacious | > 64 µg/mL | 22 µM | 8 µM | 8 µM | reduced; also recorded: downregulated | lack of in vitro activity | > 64 µg/mL | 3.2 |  | expression of IL-6, LPS stimulated whole bovine blood [7, 12]: dose dependent reduction; expression of TNF-α, LPS stimulated whole bovine blood [8, 12]: dose dependent reduction; reduction in IL-6 levels (geometric mean) [9, 15]: 51%; reduction in IL-6 levels (median value) [9, 15]: 43%
CCCNC[C@]1(O)[C@H](C)O[C@@H](O[C@H]2[C@H](C)[C@@H](O[C@@H]3O[C@H](C)C[C@H](N(C)C(=O)Nc4ccccc4)[C@H]3O)[C@](C)(O)C[C@@H](C)CN[C@H](C)[C@@H](O)[C@](C)(O)[C@@H](CC)OC(=O)[C@@H]2C)C[C@@]1(C)OC [Example H-91, 1-((2S,3R,4S,6R)-2-(((2R,3S,4R,5R,8R,10R,11R,12S,13S,14R)-2-ethyl-3,4,10-trihydroxy-13-(((2R,4R,5S,6S)-5-hydroxy-4-methoxy-4,6-dimethyl-5-((propylamino)methyl)tetrahydro-2H-pyran-2-yl)oxy)-3,5,8,10,12,14-hexamethyl-15-oxo-1-oxa-6-azacyclopentadecan-11-yl)oxy)-3-hydroxy-6-methyltetrahydro-2H-pyran-4-yl)-1-methyl-3-phenylurea] | 8% | 0 to 39% | 9% | 0 to 58% | > 64 µg/mL | 88 µM | > 256 µg/mL | 38% | clinically efficacious | > 256 µg/mL | 181 µM | 85 µM | 90 µM | reduction; also recorded: downregulated | lack of in vitro activity | > 64 µg/mL | 3.1 | > 256 µg/mL | MIC ([6]; read-out: MIC against all M. haemolytica target pathogens tested): > 256 µg/mL
CCCNC[C@]1(O)[C@H](C)O[C@@H](O[C@H]2[C@H](C)[C@@H](O[C@@H]3O[C@H](C)C[C@H](NC)[C@H]3O)[C@](C)(O)C[C@@H](C)CN[C@H](C)[C@@H](O)[C@](C)(O)[C@@H](CC)OC(=O)[C@@H]2C)C[C@@]1(C)OC [Example M9, (2R,3S,4R,5R,8R,10R,11R,12S,13S,14R)-2-ethyl-3,4,10-trihydroxy-13-(((2R,4R,5S,6S)-5-hydroxy-4-methoxy-4,6-dimethyl-5-((propylamino)methyl)-tetrahydro-2H-pyran-2-yl)oxy)-11-(((2S,3R,4S,6R)-3-hydroxy-6-methyl-4-(methylamino)tetrahydro-2H-pyran-2-yl)oxy)-3,5,8,10,12,14-hexamethyl-1-oxa-6-azacyclopentadecan-15-one, reference compound] |  |  |  |  |  | 3740 µM |  |  | clinically efficacious |  | > 250 µM | 250 µM | ~250 µM | significantly reduced; also recorded: downregulated |  | < 64 µg/mL | 2.2 | > 64 µg/mL | lung lesions ([1]; 10 mg/kg, separate study, saline control 31%): 20%; MIC Range ([2]; H. somni (25) lung isolates at necropsy, natural BRD study): 8 to 64 µg/mL; MIC50 ([2]; Histophilus somni): 32 µg/mL (≈ 40.4 µM); MIC90 ([2]; Histophilus somni): 32 µg/mL (≈ 40.4 µM); MIC50 [4]: 16 µg/mL (≈ 20.2 µM); MIC90 [4]: > 64 µg/mL; MIC ([4]; ATCC43137, read-out: Comparative MIC's, P. multocida ATCC 43137): 16 µg/mL (≈ 20.2 µM); Mouse survival ([5]; positive control, 20 mg/kg, P. multocida challenge): 90-100%; MIC50 [6]: > 64 µg/mL; MIC90 [6]: > 64 µg/mL; MIC ([6]; ATCC33396, read-out: Comparative MIC's, M. haemolytica ATCC 33396): 32 µg/mL (≈ 40.4 µM); MIC ([6]; read-out: Comparative MIC's, M. haemolytica 12726): 32 µg/mL (≈ 40.4 µM); MIC ([6]; read-out: Comparative MIC's, M. haemolytica 46571*): 32 µg/mL (≈ 40.4 µM); MIC ([10]; read-out: MIC for the BRD bacterial strains tested / target pathogens): ≤ 64 µg/mL
